Converted amounts (≈) assume the structure as drawn.
Columns and labels:
[1] = target: T1, Glucose-dependent insulinotropic receptor (Mus musculus, UniProt Q7TQP3); assay: Agonist activity at mouse GPR119 by cAMP assay; format: functional
T1 sequence (Q7TQP3 whole entry): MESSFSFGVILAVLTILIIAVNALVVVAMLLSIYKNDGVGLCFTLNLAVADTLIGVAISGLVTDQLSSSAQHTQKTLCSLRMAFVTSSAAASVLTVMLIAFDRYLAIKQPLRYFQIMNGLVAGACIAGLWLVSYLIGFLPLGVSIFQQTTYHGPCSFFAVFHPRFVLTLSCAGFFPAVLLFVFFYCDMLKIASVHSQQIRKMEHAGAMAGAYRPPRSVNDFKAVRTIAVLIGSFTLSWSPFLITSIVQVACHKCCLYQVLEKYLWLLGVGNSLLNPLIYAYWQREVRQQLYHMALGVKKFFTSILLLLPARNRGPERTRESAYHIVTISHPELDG

[2] = Fraction unbound in rat plasma; format: ADME, cell-free
[3] = Solubility in PEG400; format: physicochemical
[4] = Plasma clearance in Wistar Han rat at 0.5 mg/kg, iv LC-MS/MS method; format: ADME, organism-based
[5] = Fraction unbound in rhesus monkey plasma; format: ADME, cell-free, Macaca mulatta
Mus musculus [6] = assay: Reduction in blood glucose excursion in po dosed C57BL/6 Tac mouse by OGTT method; format: functional, organism-based
[7] = Intrinsic clearance in dog liver microsomes; format: ADME, Canis lupus familiaris; conditions: read-out: CLH
Cytochrome P450 3A4 = Cytochrome P450 3A4 (Homo sapiens, UniProt P08684); assay: Inhibition of CYP3A4 (unknown origin)
Cytochrome P450 3A4, sequence (P08684 whole entry): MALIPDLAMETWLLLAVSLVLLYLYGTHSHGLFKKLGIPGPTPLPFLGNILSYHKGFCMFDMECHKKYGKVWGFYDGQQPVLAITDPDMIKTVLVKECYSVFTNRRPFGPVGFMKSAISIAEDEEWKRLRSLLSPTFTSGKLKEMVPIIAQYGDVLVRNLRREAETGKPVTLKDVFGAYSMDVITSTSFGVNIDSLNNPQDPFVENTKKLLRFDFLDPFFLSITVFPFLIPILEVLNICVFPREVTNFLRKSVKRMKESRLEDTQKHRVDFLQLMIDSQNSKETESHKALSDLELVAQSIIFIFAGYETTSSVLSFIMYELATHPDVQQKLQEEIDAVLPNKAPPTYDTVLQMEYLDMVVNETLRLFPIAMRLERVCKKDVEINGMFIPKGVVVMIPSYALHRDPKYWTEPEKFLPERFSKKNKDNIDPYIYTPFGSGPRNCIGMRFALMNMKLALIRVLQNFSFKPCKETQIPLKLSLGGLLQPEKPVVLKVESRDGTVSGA

[8] = Solubility in FaSSIF; format: physicochemical; conditions: simulated gi fluid
[9] = Plasma clearance in rhesus monkey; format: ADME, organism-based, Macaca mulatta
[10] = Drug level in mouse blood at 0.3 mg/kg after 90 mins; format: ADME, organism-based; conditions: whole blood, read-out: Drug uptake
[11] = Intrinsic clearance in monkey liver microsomes; format: ADME, Macaca mulatta; conditions: rhesus monkey, read-out: CLH
[12] = Solubility in SGF; format: physicochemical
[13] = target: T2, Nuclear receptor subfamily 1 group I member 2 (Homo sapiens, UniProt O75469); assay: Activation of human PXR relative to control; format: ADME
T2 sequence (O75469 whole entry): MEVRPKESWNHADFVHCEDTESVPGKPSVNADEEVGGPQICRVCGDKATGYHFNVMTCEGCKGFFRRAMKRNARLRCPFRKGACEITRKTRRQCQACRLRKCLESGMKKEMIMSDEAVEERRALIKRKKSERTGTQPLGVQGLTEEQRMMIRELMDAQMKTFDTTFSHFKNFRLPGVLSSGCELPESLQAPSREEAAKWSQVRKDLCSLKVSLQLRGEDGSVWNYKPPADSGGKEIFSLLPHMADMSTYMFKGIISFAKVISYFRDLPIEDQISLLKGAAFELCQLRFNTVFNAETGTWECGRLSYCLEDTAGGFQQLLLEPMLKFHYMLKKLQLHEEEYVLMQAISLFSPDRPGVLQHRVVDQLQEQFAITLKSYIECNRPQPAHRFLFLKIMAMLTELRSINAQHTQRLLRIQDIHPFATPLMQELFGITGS

Cavia porcellus = organism: Cavia porcellus; assay: Toxicity in guinea pig assessed as effect on cardiovascular parameters at 64 times over target clinical exposure level; format: organism-based, Heart; conditions: in vivo
[14] = Volume of distribution in Beagle dog; format: ADME, organism-based, Canis lupus familiaris; conditions: in vivo
[15] = target: T3, Glucose-dependent insulinotropic receptor (Homo sapiens, UniProt Q8TDV5); assay: Agonist activity at human GPR119 expressed in CHO cells by cAMP assay; format: functional, cell-based
T3 sequence (Q8TDV5 whole entry): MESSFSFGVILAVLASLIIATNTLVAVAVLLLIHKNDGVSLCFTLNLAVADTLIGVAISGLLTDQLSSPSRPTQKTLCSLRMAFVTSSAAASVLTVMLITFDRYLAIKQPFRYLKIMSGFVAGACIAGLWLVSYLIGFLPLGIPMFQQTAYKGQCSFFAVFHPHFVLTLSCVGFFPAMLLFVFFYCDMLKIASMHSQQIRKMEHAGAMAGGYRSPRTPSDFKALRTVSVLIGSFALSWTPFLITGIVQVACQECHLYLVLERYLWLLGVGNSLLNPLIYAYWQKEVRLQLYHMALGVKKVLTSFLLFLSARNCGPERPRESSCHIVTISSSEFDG

[16] = target: T4, Glucose-dependent insulinotropic receptor (Homo sapiens) (UniProt Q8TDV5); assay: Agonist activity at human GPR119 by cAMP assay relative to control; format: functional; set-up: concentration or dose not given beside the values
T4 sequence (whole entry): T3 sequence (Q8TDV5 whole entry)

[17] = Intrinsic clearance in human liver microsomes; format: ADME; conditions: read-out: CLH
[18] = Half life in rhesus monkey; format: ADME, organism-based, Macaca mulatta; conditions: in vivo
[19] = Kinetic solubility in FaSSIF at pH 6.5; format: physicochemical; conditions: FaSSIF, read-out: Kinetic_solubility
[20] = Half life in Wistar Han rat at 0.5 mg/kg, iv LC-MS/MS method; format: ADME, organism-based; conditions: Wistar Han, in vivo
[21] = Drug level in mouse blood at 10 mg/kg after 90 mins; format: ADME, organism-based; conditions: whole blood, read-out: Drug uptake
[22] = Volume of distribution in Wistar Han rat at 0.5 mg/kg, iv LC-MS/MS method; format: ADME, organism-based; conditions: Wistar Han, in vivo
[23] = Plasma clearance in Beagle dog; format: ADME, organism-based, Canis lupus familiaris
[24] = Fraction unbound in human plasma; format: ADME, cell-free
[25] = Intrinsic clearance in rat liver microsomes; format: ADME; conditions: read-out: CLH
[26] = target: T2, Nuclear receptor subfamily 1 group I member 2; assay: Activation of human PXR; format: ADME
[27] = Oral bioavailability in Beagle dog; format: ADME, organism-based, Canis lupus familiaris; conditions: in vivo
[28] = Oral bioavailability in rhesus monkey; format: ADME, organism-based, Macaca mulatta; conditions: in vivo
[29] = Half life in Beagle dog; format: ADME, organism-based, Canis lupus familiaris; conditions: in vivo
[30] = target: T5, Glucose-dependent insulinotropic receptor (Mus musculus) (UniProt Q7TQP3); assay: Agonist activity at mouse GPR119 by cAMP assay relative to control; format: functional; set-up: concentration or dose not given beside the values
T5 sequence (whole entry): T1 sequence (Q7TQP3 whole entry)

[31] = Lipophilicity, logD of the compound at pH 7 by HPLC method; format: physicochemical; conditions: buffer
[32] = Oral bioavailability in Wistar Han rat; format: ADME, organism-based; conditions: in vivo
[33] = Fraction unbound in dog plasma; format: ADME, cell-free, Canis lupus familiaris
Rattus norvegicus = assay: Unbound volume of distribution in Wistar Han rat at 0.5 mg/kg, iv LC-MS/MS method; format: ADME, organism-based; conditions: in vivo
[34] = Solubility in PEG200; format: physicochemical
[35] = Volume of distribution in rhesus monkey; format: ADME, organism-based, Macaca mulatta; conditions: in vivo
[36] = Drug level in mouse blood at 3 mg/kg after 90 mins; format: ADME, organism-based; conditions: whole blood, read-out: Drug uptake
Mus musculus [37] = assay: Reduction in blood glucose excursion in po dosed C57BL/6 Tac mouse assessed as minimal dose for maximum efficacy by OGTT method; format: functional; conditions: read-out: MED
[38] = Drug level in mouse blood at 1 mg/kg after 90 mins; format: ADME, organism-based; conditions: whole blood, read-out: Drug uptake
[39] = Clearance in Wistar Han rat at 0.5 mg/kg, iv LC-MS/MS method; format: ADME, organism-based; conditions: in vivo

`COCc1cnc(N2CCC([C@H]3C[C@H]3COCc3ccc(S(C)(=O)=O)cc3F)CC2)nc1` gave an EC50 [1] of 1.9 nM, a fraction unbound [2] of 0.041 and a solubility [3] of 325 mg/mL (≈ 701000 µM). The clearance [4] was 41 mL/min/kg, the fraction unbound [5] was 0.032 and the Activity (Mus musculus [6]) was “Dose-dependent effect”. For the same compound, the CLint scaled [7] was 60 mL/min/kg, the IC50 (Cytochrome P450 3A4) was 40 µM and the solubility [8] was 56 µg/mL (≈ 121 µM). The clearance [9] was 16 mL/min/kg, the concentration at 1.5 h [10] was 18 nM and the CLint scaled [11] was 319 mL/min/kg. The solubility [12] was 870 µg/mL (≈ 1880 µM), the Activity [13] was 39% and the Activity (Cavia porcellus) was “Non-toxic”. For the same compound, the Vd [14] was 6.5 L/kg, the EC50 [15] was 2.1 nM and the Activity [16] was 88%. The CLint scaled [17] was 42 mL/min/kg, the half-life [18] was 138 min and the solubility kinetic [19] was 161 µM (≈ 74.6 µg/mL). For the same compound, the half-life [20] was 60 min, the concentration at 1.5 h [21] was 622 nM and the Vd [22] was 2.2 L/kg. The clearance [23] was 6 mL/min/kg, the fraction unbound [24] was 0.049 and the CLint scaled [25] was 1100 mL/min/kg. For the same compound, the EC50 [26] was over 30 µM, the bioavailability [27] was 60% and the bioavailability [28] was 5%. The half-life [29] was 1020 min, the Activity [30] was 97% and the logD [31] was 3.5. It also gave a bioavailability [32] of 27%, a fraction unbound [33] of 0.055 and a Vdu (Rattus norvegicus) of 54 L/kg. For the same compound, the solubility [34] was 129 mg/mL (≈ 278000 µM), the Vd [35] was 2 L/kg and the concentration at 1.5 h [36] was 302 nM. The minimal effective dose (Mus musculus [37]) was 3 mg/kg and the concentration at 1.5 h [38] was 86 nM.
For `CS(=O)(=O)c1ccc(COC[C@@H]2C[C@@H]2C2CCN(c3ncc(Cl)cn3)CC2)nc1`, the EC50 [1] was 3.6 nM, the fraction unbound [2] was 0.016 and the EC50 [15] was 8.7 nM. The Activity [16] was 53%, the clearance [39] was 9 mL/min/kg and the half-life [20] was 108 min. The Vd [22] was 1.3 L/kg, the CLint scaled [25] was 553 mL/min/kg and the Activity [30] was 56%. For the same compound, the logD [31] was 3.7 and the Vdu (Rattus norvegicus) was 81 L/kg.
